Usually inhibition stands for the drop in the measured response relative to a control, in per cent. A low value points to a weak effect. As usually defined, the EC50 is the concentration giving half of the maximal effect. A higher EC50 goes with weaker potency. The term IC50 denotes the point on the concentration scale where inhibition reaches its midpoint. High values mean lower potency, low ones higher potency.

From publication PMC10641818, “Development of First-in-Class Dual Sirt2/HDAC6 Inhibitors as Molecular Tools for Dual Inhibition of Tubulin Deacetylation” (Journal of Medicinal Chemistry, 2023) come the findings set out here.

One test addresses T1, Sirt1 (Homo sapiens, UniProt Q96EB6).
T1 construct: the respective sirtuin (Sirt1_134–747, Sirt2_56–356, or Sirt3_118–395) was mixed with; made in house; host or cells: Escherichia coli BL21 Star (DE3)
T1 sequence (Q96EB6 134-747): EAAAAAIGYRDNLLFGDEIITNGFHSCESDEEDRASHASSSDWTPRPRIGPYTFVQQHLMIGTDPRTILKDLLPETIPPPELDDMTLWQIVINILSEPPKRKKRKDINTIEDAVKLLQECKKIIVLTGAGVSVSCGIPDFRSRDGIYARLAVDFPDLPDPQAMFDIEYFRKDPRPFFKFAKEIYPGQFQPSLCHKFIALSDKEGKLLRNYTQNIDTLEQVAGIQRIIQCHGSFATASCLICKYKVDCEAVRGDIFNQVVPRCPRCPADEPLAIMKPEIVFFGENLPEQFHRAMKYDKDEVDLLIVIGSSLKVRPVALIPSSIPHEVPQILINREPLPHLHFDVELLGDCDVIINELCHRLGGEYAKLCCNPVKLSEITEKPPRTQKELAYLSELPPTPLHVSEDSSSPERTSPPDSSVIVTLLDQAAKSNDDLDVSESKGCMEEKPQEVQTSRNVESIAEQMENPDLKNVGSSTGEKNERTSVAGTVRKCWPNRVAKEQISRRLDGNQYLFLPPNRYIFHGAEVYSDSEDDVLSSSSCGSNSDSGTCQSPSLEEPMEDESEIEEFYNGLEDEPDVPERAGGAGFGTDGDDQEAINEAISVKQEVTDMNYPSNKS
The test can be described thus: Sirt1 in vitro deacetylation assay (ZMAL). The class given is biochemical.

The test system of the next test is W1 ovarian cancer cells. The test can be described thus: Cell viability assay (MTT) W1. The class given is cell-based. The conditions noted are these: 72 h, @ 50 μM. The procedure: (§1) Cell viability assays of HGC27 and PC-3M-luc cells were performed by using the Celltiter 96 Aqueous Nonradioactive Proliferation Assay (Promega). Cells were seeded in sterile 96-well plates at a density of 2000 cells per well and incubated overnight at 37 °C and 5% CO2. Compound or vehicle were added to a final concentration of 0.5% DMSO. […] Cells were seeded at densities of 10^4 cells/well for W1 cells or 2 × 10^3 cells/well for MCF-7 cells. Tests were performed in 96-well plates (Sarstedt AG, Nümbrecht, Germany). After incubation overnight, cells were supplemented with half logarithmic dilution series of the indicated compounds and DPBS (PAN Biotech GmbH, Aidenbach, Germany) as control. Then 72 h after addition of cytostatic treatment, the MTT solution (20 μL, 5 mg/mL) was added into the wells for 1 h at 37 °C and 5% CO2 until formazan crystals were formed. The supernatant was removed, and the cells were dissolved in 200 μL of DMSO. Absorption was analyzed at 570 nm, with background subtraction at 690 nm, using a plate reader (Thermomultiscan EX, Thermo, Schwerte, Germany). Cell viability was then determined by nonlinear regression and a four-parameter logistic equation with variable hill slope. […] The significance of the difference of the effects of 33 and 4 + 57 was determined by using an unpaired, two-tailed t test with Welch’s correction, implemented in GraphPad Prism 8.4.0 (GraphPad, USA). Statistical significance was accepted if p < 0.05. Asterisks indicate *p < 0.05, **p < 0.01.

Test [1] has as its system HGC27 gastric carcinoma cells. Put plainly: Cell viability assay (MTS) HGC27. The class given is cell-based. The conditions noted are these: Homo sapiens, HGC-27; 72 h, MTS, mean ± SD. The procedure: as §1
The target in the next test is T2, Sirt2 (demyristoylation) (Homo sapiens, UniProt Q8IXJ6).
T2 construct: the respective sirtuin (Sirt1_134–747, Sirt2_56–356, or Sirt3_118–395) was mixed with; made in house; host or cells: Escherichia coli BL21 Star (DE3)
T2 sequence (Q8IXJ6 56-356): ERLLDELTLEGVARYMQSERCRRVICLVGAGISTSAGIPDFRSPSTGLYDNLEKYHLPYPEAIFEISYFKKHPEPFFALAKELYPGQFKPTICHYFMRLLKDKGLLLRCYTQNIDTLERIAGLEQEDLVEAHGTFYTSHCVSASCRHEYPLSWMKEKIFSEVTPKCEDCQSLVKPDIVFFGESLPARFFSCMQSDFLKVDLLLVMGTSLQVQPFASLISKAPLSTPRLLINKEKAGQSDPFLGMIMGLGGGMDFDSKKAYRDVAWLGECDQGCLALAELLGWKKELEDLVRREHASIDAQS
The test can be described thus: Discontinuous Sirt2 demyristoylation assay (ZMML substrate). The class given is biochemical. The conditions noted are these: mean ± SD.

The next test deals with T3, HDAC2 (Homo sapiens, UniProt Q92769).
T3 construct: purchased BPS Bioscience 50052
T3 sequence (Q92769 whole entry): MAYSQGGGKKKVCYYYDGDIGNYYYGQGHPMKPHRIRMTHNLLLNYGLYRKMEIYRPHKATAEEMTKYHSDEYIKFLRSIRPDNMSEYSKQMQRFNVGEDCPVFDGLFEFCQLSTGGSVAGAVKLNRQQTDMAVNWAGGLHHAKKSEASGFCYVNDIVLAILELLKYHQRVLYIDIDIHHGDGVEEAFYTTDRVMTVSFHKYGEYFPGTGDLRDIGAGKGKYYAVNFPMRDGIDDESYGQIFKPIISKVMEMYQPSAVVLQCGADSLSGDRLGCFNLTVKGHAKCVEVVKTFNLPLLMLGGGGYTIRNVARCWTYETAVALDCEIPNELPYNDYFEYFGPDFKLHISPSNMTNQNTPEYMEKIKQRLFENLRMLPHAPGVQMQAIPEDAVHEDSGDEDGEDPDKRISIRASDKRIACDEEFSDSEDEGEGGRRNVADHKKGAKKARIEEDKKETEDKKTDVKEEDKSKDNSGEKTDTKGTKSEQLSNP
The test can be described thus: HDAC2 in vitro deacetylation assay (ZMAL). It is filed as biochemical. The conditions noted are these: mean ± SD.

Another test addresses T4, HDAC1 (Homo sapiens, UniProt Q13547).
T4 construct: purchased BPS Bioscience 50051
The test can be described thus: HDAC1 in vitro deacetylation assay (ZMAL). The conditions noted are these: deacetylation, mean ± SD. It is filed as biochemical.

A further test concerns the target T5, Sirt2 (Homo sapiens, UniProt Q8IXJ6).
T5 construct: the respective sirtuin (Sirt1_134–747, Sirt2_56–356, or Sirt3_118–395) was mixed with; made in house; host or cells: Escherichia coli BL21 Star (DE3)
T5 sequence (Q8IXJ6 56-356): T2 sequence (Q8IXJ6 56-356)
Put plainly: Sirt2 in vitro deacetylation assay (ZMAL, trypsin-based fluorescence). The class given is biochemical. The conditions noted are these: deacetylation, mean ± SD.

In test [2] the test system is MCF-7 breast cancer cells. Put plainly: Cell viability assay (MTT) MCF-7. The class given is cell-based. The conditions noted are these: 72 h, @ 50 μM. As to the method:
as §1

For test [3], the system named is PC-3M-luc prostate cancer cells. Put plainly: Cell viability assay (MTS) PC-3M-luc. The conditions noted are these: 72 h, @ 50 μM. It is filed as cell-based. As to the method: as §1
A further test addresses T6, HDAC3/NcoR2 (Homo sapiens, UniProt O15379).
T6 construct: purchased BPS Bioscience 50003
Put plainly: HDAC3 in vitro deacetylation assay (ZMAL). It is filed as biochemical. The conditions noted are these: mean ± SD.

Another test has as its target T7, HDAC6 (Homo sapiens, UniProt Q9UBN7).
T7 sequence (Q9UBN7 1-1215): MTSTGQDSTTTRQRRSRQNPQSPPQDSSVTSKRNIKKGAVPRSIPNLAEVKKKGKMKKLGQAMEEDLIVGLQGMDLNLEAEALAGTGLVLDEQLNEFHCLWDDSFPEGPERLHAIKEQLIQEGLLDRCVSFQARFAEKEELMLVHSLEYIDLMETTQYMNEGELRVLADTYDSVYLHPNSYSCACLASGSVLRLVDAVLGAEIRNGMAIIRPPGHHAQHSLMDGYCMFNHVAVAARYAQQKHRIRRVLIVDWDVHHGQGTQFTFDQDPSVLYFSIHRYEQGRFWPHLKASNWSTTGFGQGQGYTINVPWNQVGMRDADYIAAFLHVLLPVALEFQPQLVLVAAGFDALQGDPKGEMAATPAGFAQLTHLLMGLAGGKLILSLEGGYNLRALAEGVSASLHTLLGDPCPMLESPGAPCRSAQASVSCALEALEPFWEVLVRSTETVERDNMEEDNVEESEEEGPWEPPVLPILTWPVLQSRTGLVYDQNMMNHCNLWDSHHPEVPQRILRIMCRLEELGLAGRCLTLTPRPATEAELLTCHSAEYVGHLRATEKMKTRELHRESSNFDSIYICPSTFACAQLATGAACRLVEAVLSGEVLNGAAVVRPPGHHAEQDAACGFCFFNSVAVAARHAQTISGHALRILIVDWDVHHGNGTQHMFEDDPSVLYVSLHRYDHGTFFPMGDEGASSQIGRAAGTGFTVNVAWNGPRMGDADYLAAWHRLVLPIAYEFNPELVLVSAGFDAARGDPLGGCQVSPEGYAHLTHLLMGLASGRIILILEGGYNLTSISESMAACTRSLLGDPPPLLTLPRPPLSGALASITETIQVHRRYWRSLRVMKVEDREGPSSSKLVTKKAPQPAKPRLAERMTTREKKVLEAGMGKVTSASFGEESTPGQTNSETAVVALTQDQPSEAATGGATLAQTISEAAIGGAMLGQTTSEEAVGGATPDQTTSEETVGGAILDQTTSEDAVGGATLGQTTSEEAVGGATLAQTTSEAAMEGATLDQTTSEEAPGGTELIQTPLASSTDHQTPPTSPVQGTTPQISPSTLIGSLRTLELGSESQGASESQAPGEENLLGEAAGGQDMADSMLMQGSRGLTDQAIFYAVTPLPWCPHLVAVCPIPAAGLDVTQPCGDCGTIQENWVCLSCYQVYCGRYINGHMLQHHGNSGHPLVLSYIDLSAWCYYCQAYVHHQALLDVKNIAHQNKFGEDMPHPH
The test can be described thus: HDAC6 in vitro deacetylation assay (ZMAL). It is filed as biochemical. Set-up: purchased BPS Bioscience 50006. The conditions noted are these: deacetylation, mean ± SD.

A further test deals with T8, Sirt3 (Homo sapiens, UniProt Q9NTG7).
T8 construct: the respective sirtuin (Sirt1_134–747, Sirt2_56–356, or Sirt3_118–395) was mixed with; made in house; host or cells: Escherichia coli BL21 Star (DE3)
T8 sequence (Q9NTG7 118-395): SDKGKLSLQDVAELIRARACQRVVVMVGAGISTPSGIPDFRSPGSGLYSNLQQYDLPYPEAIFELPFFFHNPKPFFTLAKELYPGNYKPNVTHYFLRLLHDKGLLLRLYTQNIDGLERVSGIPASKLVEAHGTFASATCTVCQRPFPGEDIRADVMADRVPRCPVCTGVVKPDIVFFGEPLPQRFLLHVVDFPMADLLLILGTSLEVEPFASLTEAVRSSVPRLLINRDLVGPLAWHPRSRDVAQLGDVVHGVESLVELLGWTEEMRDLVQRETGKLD
Put plainly: Sirt3 in vitro deacetylation assay (ZMAL). It is filed as biochemical.

T6 sequence (O15379 whole entry): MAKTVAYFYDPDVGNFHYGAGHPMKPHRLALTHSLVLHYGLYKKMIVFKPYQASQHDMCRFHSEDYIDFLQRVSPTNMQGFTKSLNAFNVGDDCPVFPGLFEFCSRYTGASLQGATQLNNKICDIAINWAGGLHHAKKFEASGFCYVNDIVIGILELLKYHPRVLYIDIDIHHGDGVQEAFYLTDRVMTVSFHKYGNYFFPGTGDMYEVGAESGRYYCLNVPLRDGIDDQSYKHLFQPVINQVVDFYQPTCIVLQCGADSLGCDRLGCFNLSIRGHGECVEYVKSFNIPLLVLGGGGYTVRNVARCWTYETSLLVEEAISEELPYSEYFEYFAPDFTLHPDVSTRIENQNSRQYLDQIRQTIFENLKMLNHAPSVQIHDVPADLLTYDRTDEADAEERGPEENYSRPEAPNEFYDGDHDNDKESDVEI
T6 sequence (Q9Y618 395-489 partner limits assumed): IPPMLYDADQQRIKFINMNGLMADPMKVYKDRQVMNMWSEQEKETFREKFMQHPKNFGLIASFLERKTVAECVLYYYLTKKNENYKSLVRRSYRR
T4 sequence (Q13547 whole entry): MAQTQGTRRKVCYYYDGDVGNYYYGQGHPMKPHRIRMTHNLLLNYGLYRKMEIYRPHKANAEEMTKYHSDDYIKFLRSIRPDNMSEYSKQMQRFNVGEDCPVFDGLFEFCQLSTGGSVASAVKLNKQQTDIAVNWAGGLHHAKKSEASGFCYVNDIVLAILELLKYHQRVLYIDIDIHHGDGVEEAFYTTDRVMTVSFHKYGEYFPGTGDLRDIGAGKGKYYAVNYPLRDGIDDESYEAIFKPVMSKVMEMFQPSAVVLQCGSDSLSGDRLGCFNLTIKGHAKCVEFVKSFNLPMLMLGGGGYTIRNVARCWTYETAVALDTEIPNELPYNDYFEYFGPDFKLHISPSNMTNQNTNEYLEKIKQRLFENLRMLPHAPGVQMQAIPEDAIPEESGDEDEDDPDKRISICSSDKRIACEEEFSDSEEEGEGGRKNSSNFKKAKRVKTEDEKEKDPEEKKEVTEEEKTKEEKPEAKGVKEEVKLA

`Cc1cc(C)nc(SCC(=O)Nc2ncc(Cc3cccc(OCc4cn(CCOCCOCCOCCOCCC(=O)Nc5ccc(C(=O)NCCCCCCC(=O)NO)cc5)nn4)c3)s2)n1` [Compound 46, 4-(1-(4-((3-((2-(2-((4,6-Dimethylpyrimidin-2-yl)thio)acetamido)thiazol-5-yl)methyl)phenoxy)methyl)-1H-1,2,3-triazol-1-yl)-3,6,9,12-tetraoxapentadecan-15-amido)-N-(7-(hydroxyamino)-7-oxoheptyl)benzamide]: the inhibition at 20 µM at Sirt1 and at Sirt3 was under 15% each time. Also, in the test with W1 ovarian cancer cells, the W1 cellular effect entry is recorded as “ni ^b (ni = no inhibition (cellular effect <20% @ 50 μM))”. The EC50 in test [1] amounted to 17200 ± 1000 nM. The IC50 came to 13200 ± 1900 nM at Sirt2 (demyristoylation); 340 ± 20 nM on HDAC2; 210 ± 30 nM against HDAC1; 480 ± 70 nM against Sirt2; 140 ± 10 nM against HDAC3/NcoR2; 5 ± 0.5 nM against HDAC6. For the same compound, the MCF-7 cellular effect result in [2] was “ni ^b (ni = no inhibition (cellular effect <20% @ 50 μM))”. The PC-3M-luc cellular effect result in test [3] was “ni ^b (ni = no inhibition (cellular effect <20% @ 50 μM))”.
